In US9820981B2, “Treatment of retinopathy of prematurity (ROP)” (The Cleveland Clinic Foundation, priority 2013, dated 2017):

Experiments:
[1] = test system: serum erythropoietin (Epo), a HIF-regulated gene product; assay: Immunoblot of serum erythropoietin (Epo) response after single intraperitoneal injection; type: in vivo; conditions: P8 mouse pups, serum 6 hours after a single intraperitoneal injection
[2] = test system: oxygen-induced retinopathy (OIR); assay: Oxygen-induced retinopathy (OIR) mouse model, retinal flatmounts; type: in vivo; conditions: for reduction of capillary dropout in retinal flatmounts (percent avascular area of total retinal area): P17, each at optimal dose (10 μg/g FG-4592, 200 μg/g DMOG) i.p. at P6, P8, P10
Protocol: The PBS-treated pup has an ischemic, posterior retina compared to the FG-4592-treated pup. Pups were treated with intraperitoneal injection of 10 μg/g body weight FG-4592 at P6, P8, and P10 while in 75% hyperoxia. At P12, pups were removed to room air with their nursing mothers and sacrificed at P17. Eyes were removed and fixed for 15 minutes in fresh 4% paraformaldehyde (PFA) before isolating whole retina, permeabilizing and lectin staining, then flat mounting for fluorescence microscopy.
An automated computer program (ImagePro version 7.0) measures capillary dropout and neovascular tufting seen in 3B.
The mouse model of ROP used in this study is based on a well-established protocol by Smith et al. (L. E. Smith, E. Wesolowski, A. McLellan, S. K. Kostyk, R. D'Amato, R. Sullivan, and P. A. D'Amore. Oxygen-induced retinopathy in the mouse. Investigative ophthalmology & visual science. 35:101-111 (1994)) that involves exposing pups and their nursing mothers to 5 days of hyperoxia (75% oxygen) during P7 through P12 in the wild type C57BL6 (WT) pups. A Plexiglas incubator with an oxygen sensor and feedback system ProOx (Biospherix, Lacona, N.Y.) was used to ensure continuous hyperoxia. Animals were injected intraperitoneally with FG-4592 (10 μg/g), DMOG (200 μg/g) or control PBS in the equivalent volume at P6, P8, and P10. […] Flatmount preparation and lectin (GS-IB4-Alexa568, Life Technologies, Grand Island, N.Y.) staining was performed essentially as described elsewhere (K. M. Connor, N. M. Krah, R. J. Dennison, C. M. Aderman, J. Chen, K. I. Guerin, P. Sapieha, A. Stahl, K. L. Willett, and L. E. Smith. Quantification of oxygen-induced retinopathy in the mouse: a model of vessel loss, vessel regrowth and pathological angiogenesis. Nat Protoc. 4:1565-1573 (2009); A. Stahl, K. M. Connor, P. Sapieha, K. L. Willett, N. M. Krah, R. J. Dennison, J. Chen, K. I. Guerin, and L. E. Smith. Computer-aided quantification of retinal neovascularization. Angiogenesis. 12:297-301 (2009)). Retinas were dissected using four radial cuts, and flatmounted onto glass slides with Vectashield (Vector Labs, Burlingame, Calif.). All animal procedures were performed in accordance with the Cleveland Clinic Institutional Animal Care and Use Committee.
For quantitative analysis of avascular area, vascular tortuosity, and tufting, retinal images were batch processed using a customized macro and algorithms generated in Image-Pro Plus 7.0 (Media Cybernetics, Silver Spring, Md.) as previously described (J. E. Sears, G. Hoppe, Q. Ebrahem, and B. Anand-Apte. Prolyl hydroxylase inhibition during hyperoxia prevents oxygen-induced retinopathy. Proceedings of the National Academy of Sciences of the United States of America. 105:19898-19903 (2008)).
FG-4592 was solubilized as a stock solution of […] in DMSO, which was then diluted 50 times in PBS to a concentration of 1 μg/microliter to facilitate a final dose of 10 μg/g body weight of each mouse pup. Three injections were administered during the hyperoxic phase of oxygen-induced retinopathy (OIR) at 48-hour intervals.

[3] = test system: HIF prolyl hydroxylase (PHD); assay: In vivo localization of PHD inhibition in luc-ODD mouse (luminescence imaging, luciferase activity in organ lysates); conditions: for localization of luminescence, whole animal imaging: luc-ODD mouse
Protocol: Gt(ROSA)26Sor^tml(Luc)Kael (luc-ODD) mice were obtained from the Jackson Laboratory (Bar Harbor, Me.). Pups were given i.p. injections of 10 μg/g FG-4592 at indicated periods of time prior to live imaging. Mice were injected with mixture of 100 mg/kg ketamine, 10 mg/kg xylazine and 50 mg/kg luciferin and placed in a light-tight chamber connected to a supercooled, charge-coupled camera. Photons were collected for 15 seconds using IVI 100 Imaging System (PerkinElmer, Waltham, Mass.).
The luc-ODD mouse has a transgene comprised of luciferase fused to the ODD and, therefore, serves as a reporter gene in vivo of where hydroxylation of the ODD is inhibited, observed as luminescence in tissue lysates and whole animal imaging.
Quantitation of the effect shown in FIG. 4A supports the specificity of this effect in tissue lysates.

[4] = test system: HIF-1α; assay: Western blot of HIF-1α protein in organ lysates; type: in vivo; conditions: mouse pups, versus PBS
Protocol: Mice were sacrificed by ketamine/xylazine overdose, organs collected and placed in RIPA buffer (200 μL per 50 mg of tissue, pH 7.0) containing protease inhibitors Complete (Roche, Indianapolis, Ind.), disrupted using a tight fitting microtube pestle, and centrifuged to remove particulate matter. A Pierce BCA protein assay (Thermo Scientific, Rockford, Ill.) was used to measure protein concentrations. Lysates were subjected to 4-20% SDS-PAGE and electro-transferred to PVDF membranes for immunoblotting. Membranes were blocked with 5% nonfat dried milk in Tris-buffered saline and 0.1% Tween-20, then probed with anti-HIF-1α, antibody (Cayman Chemical, Ann Arbor, Mich.) overnight. After washing and secondary antibody hybridization, membranes were exposed by chemiluminescence (Western Lighting, PerkinElmer, Waltham, Mass.).
FIG. 5A is images of Western blots detecting HIF-1α protein in organ lysates derived from pups treated with PBS or FG-4592, and FIG. 5B is a graph of integrated optical density of the immunoblots shown in FIG. 5A.

[5] = test system: EPO; assay: Serum EPO ELISA; type: in vivo; conditions: P8 mouse pups
Protocol: (§1) Wild-type (WT) and HIF-1α knock-out (KO) P8 mouse pups were injected with 10 μg/g FG-4592 and, following indicated periods of time, the pups were anesthetized by ketamine/xylazine, blood was drawn using heparinized 27-gauge needle and syringe. Serum was diluted 1:10 (EPO), 1:5 (VEGF) or 1:100 (ANGPTL-3) with sample diluent provided by the manufacturer (R&D Systems, Minneapolis, Minn.). Spectrophotometric measurements of EPO, VEGF, and ANGPTL-3 quantities were obtained according to the manufacturer's instructions.

[6] = test system: VEGF; assay: Serum VEGF ELISA; type: in vivo; conditions: P8 mouse pups
Protocol: as §1

[7] = test system: angiopoietin-like protein 3 (ANGPTL-3); assay: Serum ANGPTL-3 ELISA; type: in vivo; conditions: P8 mouse pups
Protocol: as §1

[8] = test system: Hepatic EPO, VEGFA and ANGPTL3 mRNA; assay: Reverse transcription and quantitative PCR of hepatic mRNA; type: in vivo, mouse; conditions: data not shown
Protocol: Tissue from liver, kidney, brain and retina were placed into 1 mL of RNAlater reagent (Qiagen, Germantown, Md.) and stored at −80° C. Total RNA was extracted using RNeasy kit (Qiagen) and measured using NanoDrop and standard spectrophotometric parameters. One μg of total RNA from each sample was retrotranscripted to cDNA using QuantiTect Reverse Transcription Kit (Qiagen). One μl of cDNA samples was used as template for amplification reactions carried out with the QuantiTect SYBR Green PCR kit (Qiagen) following the manufacturer's instructions. PCR amplifications were performed in a 7900HT Fast Real-Time PCR system (Applied Biosystems, Foster City, Calif.) and quantitative PCR data analysis was performed with RQ Managed software (Applied Biosystems).

[9] = murine OIR model, 10 eyes each group

## Cc1nc(C(=O)NCC(=O)O)c(O)c2ccc(Oc3ccccc3)cc12 [FG-4592]
[1]
  potency relative to DMOG, quantification of serum Epo immunoblot: approximately fifteen times more potent than DMOG
[2]; 10 μg/g i.p. at P6, P8, P10 in 75% hyperoxia, sacrificed P17, versus PBS
  preservation of retinal vessels in retinal flatmounts: preservation of retinal vessels
[2]; OIR model, 10 μg/g FG-4592 versus 200 μg/g DMOG
  benefit in direct comparison with DMOG: at least the same benefit as DMOG, with a trend to superiority of FG-4592
[2]; P17, versus sham PBS injection
  ischemic, hypoxic retina (isolectin and Hypoxyprobe staining): decrease in ischemic, hypoxic retina at P17
[2]; versus PBS
  reduction of capillary dropout in retinal flatmounts (percent avascular area of total retinal area): 3 fold
[2]; flatmounts at P12, P15, P17, treated versus PBS
  rate of decrease of central avascular region (retinovascular repair): identical rates of decrease of this region in treated and untreated animals
[2]; [9]
  inhibition of capillary drop-out compared with DMOG: inhibits capillary drop-out better than DMOG
  inhibition of neovascularization subsequent to capillary drop-out compared with DMOG: inhibits neovascularization subsequent to capillary drop-out better than DMOG
[3]; luc-ODD mice, s.c. or i.p. injection, versus PBS
  organ specificity, luciferase activity (RLU/mg tissue protein) in organ lysates: specificity of FG-4592 for liver and kidney
[3]; i.p. injection
  localization of luminescence, whole animal imaging: liver- and kidney-specific luminescence
[3]; s.c. injection
  localization of luminescence, whole animal imaging: liver- and kidney-specific luminescence
[3]; single intraperitoneal injection, time course in kidney and lung
  duration of HIF PHD inhibition: at least 24 hours
[4]
  organ specific stabilization of HIF-1α protein (integrated optical density): maximal increase in HIF-1α in liver and kidney lysates
[5]; 10 μg/g FG-4592 i.p.
  circulating (serum) levels of EPO: marked increase
[5]; time-course study
  time of peak EPO production after treatment: 3 h
[6]; 10 μg/g FG-4592 i.p.
  serum levels of VEGF: moderate but statistically significant increase
[6]; time-course study
  time of peak VEGF levels after treatment: 6 h
[7]; 10 μg/g FG-4592 i.p.
  elevation of ANGPTL-3 in serum: 6 fold
[7]; time-course study
  time course of ANGPTL-3 induction: sustained induction, even 24 hours after FG-4592 treatment
[8]
  Hepatic EPO, VEGFA and ANGPTL3 mRNA levels and kinetics: mirrored their corresponding serum protein concentrations

## COC(=O)CNC(=O)C(=O)OC [DMOG, dimethyl oxaloylglycine]
[2]; versus PBS
  reduction of capillary dropout in retinal flatmounts (percent avascular area of total retinal area): 3 fold
